pIC50: −log10 of the molar value.
Columns and labels:
[1] = target: ALS enzyme extracted from Mutant 9 (heterozygous); assay: ALS enzyme assay, heterozygous Mutant 9; format: biochemical, Zea mays; details: for pIC50: ALS of heterozygous Mutant 9, read-out: ID50% (the source's name); for resistance group, Enzyme Assay: Mutant 9, groups Strong, Intermediate, Weak, Zero; for Fold Increase: fold increase in resistance vs wild type, heterozygous Mutant 9, 30 min
Description: (§1) Seeds of generation M₁BC₁ M₁BC₂ of the nine mutants were sprayed pre-emergence with the herbicide imazethapyr (PURSUIT) (Trade Mark) at a rate of 250 g/ha and grown in a growth chamber (16 hour day, 27°C; 8 hour night, 17°C). Plants were harvested after 11 days.
(§2) Four grams of leaf material were harvested from just above the first leaf axis and ground in a mortar and pestle in 20ml of a solution containing 40mM Tricine (Trade Mark), 10mM EDTA, 5mM pyruvate, 80 »M flavin adenine dinucleotide (FAD), 1mM dithiothreitol (DTT), pH 8, plus 0.8g Polyclar AT. The homogenate was pressed through four layers of muslin and centrifuged at 30,000g for 20 minutes.
(§3) The supernatant was brought to 65% saturation with ammonium sulphate, left to precipitate for 30 minutes and then centrifuged at 30.000g for 20 minutes. The pellet was resuspended in 2.5ml of 40mM Tricine, 10mM EDTA, 5mM pyruvate, 80»M FAD, 25% (v/v) glycerol, 1mM DTT, pH 8, and desalted into 3.5ml of 40mM Tricine, 10mM EDTA, 25% (v/v) glycerol, 1mM DTT, pH 8.
(§4) One hundred microlitres of the enzyme extract was used for each assay. Final reagent concentrations were: 120mM Tricine, 50mM pyruvate, 10mM MgCl₂, […], 93»M thiamine pyrophosphate (TPP), pH 8, in the presence or absence of a herbicide of interest, in a volume of 750 »l. Incubations were carried out at 37°C for 30 minutes. Reactions were stopped with 250»l of 1.84M sulphuric acid, and decarboxylation of the acetolactate carried out at 37°C for 75 minutes, or at 60°C for 30 minutes. Assay blanks had sulphuric acid added prior to the enzyme extract. To the samples and blanks 650»l of α-naphthol in 2.73M NaOH/0.16%(w/v) creatine were added followed by incubation at 37°C for 30 minutes. After centrifugation at 30,000g the optical density of the supernatant was read at 540nm.
(§5) The assay procedure described was carried out on ALS enzyme extracted from each of the nine mutants for the following herbicides: imazethapyr (PURSUIT) imazapyr (ARSENAL) imazaquin (SCEPTER) chlorsulfuron (GLEAN) chlorimuron (CLASSIC) […] (HARMONY) The enzyme activity graphs are given as Figures 3 to 8. In addition, homozygous lines of mutants 1 and 2 which were selected from generation M₁BC₁S₂, were also tested against the same group of herbicides and against representatives of the triazolopyrimidines and phenoxypyrimidines. The chemical structures of these herbicides are shown in Figure 2 of the accompanying drawings.
(§6) From the enzyme assay data it is possible to derive, as a measure of the degree of inhibition the factor ID50% for each mutant and for each herbicide. This factor is indicative of the herbicide concentration which gives 50% inhibition of the ALS activity in comparison with the wild-type control. It is also possible to derive the fold increase in resistance.

Mutant 2 plants = assay: Cross-resistance testing (glasshouse dose response), Mutant 2; format: in vivo, Zea mays; details: pre-emergence spray, assessed after four weeks growth
From the text: (§7) The seeds used in this screen were populations of mixed tolerant and sensitive seed, segregating 1:1, derived from each of the heterogygous, tolerant mutants crossed with homozygous, sensitive UE95. All of the tolerant progeny are heterozygous for tolerance. Each of the mutants identified above were used except mutant 4. The controls were seed of self-pollinated UE95 which was pollinated in the same year as the tolerant lines.
(§8) One litre of compost was placed in each seed tray of dimensions 19cm x 11cm x 5cm deep and firmed down flat. Two furrows 1 cm deep were drawn in the surface of the compost in each tray and six seeds were sown in each furrow (total twelve seeds per tray). Some trays were sown with 24 seeds, in which case three furrows were made and 8 seeds sown per furrow.
(§9) In each test each tray contained either the seed of one mutant or of the UE95 control for each herbicide application rate and for the untreated control.
(§10) Five different types of ALS-inhibitor herbicides were tested on the mutants plus imazethapyr (PURSUIT) as a comparison. Four rates of each were applied; approximately 0.1x, 0.5x, 1x and 4x the estimated field rates for each herbicide. The rates are the same for mutant 3 to 10 but higher rates for chlorimuron (CLASSIC) and lower rates for chlorsulfuron (GLEAN) were applied to mutants 1 and 2.
(§11) The rates of application used in the screening tests were as follows: chlorimuron (CLASSIC) 4,20,40,160 g/Ha (mutants 1 and 2); and, 8,40,80,320 g/Ha (mutants 3 to 10); chlorsulfuron (GLEAN) 5,25,50,200 g/Ha (mutants 1 and 2); and, 1,5,10,40 g/Ha (mutants 3 to 10); imazaquin (SCEPTER) 30,150,300,1200 g/Ha; triazolopyrimidine 5,25,50,200 g/Ha; phenoxypyrimidine 10,50,100,400 g/Ha; and, imazethapyr (PURSUIT) 30,150,300,1200 g/Ha The triazolopyrimidine and phenoxypyrimidine were formulated in an adjuvant wetting agent known as JF5969 and diluted with water to make a final concentration of 10% JF5969. The remaining compounds were diluted with water only.
(§12) The spray jet and parameters were as decribed above under "SCREENING". After spraying, the seeds were covered with 0.5 litre of compost and firmed down flat (2.5cm covering) and grown under the conditions described under "SCREENING" above.
(§13) Visual assessments were made of the plants after four weeks growth. Each plant was scored on a scale of zero to 5 and the height measured from soil surface to the tallest leaf tip. The scoring scale was as follows: 0 - 0 to 10% damage (little or no herbicidal effect) 1 - 11 to 25% damage 2 - 26 to 50% damage 3 - 51 to […] 4 - 81 to 95% damage 5 - 96 to 100% damage (complete death of the plant) In carrying out these assessments, plants which were obviously of the sensitive phenotype were ignored (approximately 50% of the plants). […]

[2] = target: ALS extracted from leaves of MUTANT 2 (homozygous); assay: ALS enzyme assay, homozygous Mutant 2; format: biochemical, Zea mays; details: for pIC50: ALS of homozygous Mutant 2, read-out: ID50% Mutant; for Fold Increase: fold increase in resistance vs wild type, homozygous Mutant 2, 30 min
Description: as §2, §3, §4, §5, §6

Mutant 10 plants = assay: Cross-resistance testing (glasshouse dose response), Mutant 10; format: in vivo, Zea mays; details: pre-emergence spray, assessed after four weeks growth
From the text: as §7, §8, §9, §10, §11, §12, §13

[3] = target: ALS enzyme extracted from Mutant 1 (heterozygous); assay: ALS enzyme assay, heterozygous Mutant 1; format: biochemical, Zea mays; details: for pIC50: ALS of heterozygous Mutant 1, read-out: ID50% (the source's name); for resistance group, Enzyme Assay: Mutant 1, groups Strong, Intermediate, Weak, Zero; for Fold Increase: fold increase in resistance vs wild type, heterozygous Mutant 1, 30 min
Description: as §1, §2, §3, §4, §5, §6

[4] = target: ALS extracted from leaves of MUTANT 1 (homozygous); assay: ALS enzyme assay, homozygous Mutant 1; format: biochemical, Zea mays; details: for pIC50: ALS of homozygous Mutant 1, read-out: ID50% Mutant; for Fold Increase: fold increase in resistance vs wild type, homozygous Mutant 1, 30 min
Description: as §2, §3, §4, §5, §6

Mutant 3 plants = assay: Cross-resistance testing (glasshouse dose response), Mutant 3; format: in vivo, Zea mays; details: pre-emergence spray, assessed after four weeks growth
From the text: as §7, §8, §9, §10, §11, §12, §13

SMILES | pIC50 [1] | resistance group, Enzyme Assay [1] | Fold Increase [1] | resistance group, Dose Response (Mutant 2 plants) | pIC50 [2] | Fold Increase [2] | resistance group, Dose Response (Mutant 10 plants) | pIC50 [3] | resistance group, Enzyme Assay [3] | Fold Increase [3] | pIC50 [4] | Fold Increase [4] | resistance group, Dose Response (Mutant 3 plants)
CC(C)C1(C)N=C(c2nc3ccccc3cc2C(=O)O)NC1=O (stereo not drawn) [Imazaquin, imazaquin] | 4.30 | Strong | 83 | Strong | 4.40 | 66 | Weak | 3.82 | Strong | 250 | 3.76 | 292 | Weak
COc1cc(Cl)nc(NC(=O)NS(=O)(=O)c2ccccc2C(=O)O)n1 [Chlorimuron, chlorimuron] | – | Weak | 3 | Zero | 7.70 | 5.4 | Weak | 8.30 | Weak | 1 | 8.00 | 2.7 | Weak
COc1nc(C)nc(NC(=O)NS(=O)(=O)c2ccccc2Cl)n1 [Chlorsulfuron, chlorsulfuron] | 7.30 | Weak | 3 | Zero | 7.40 | 2.2 | Weak and Zero | 7.19 | Weak | 4 | 7.22 | 3.2 | Intermediate
CCc1cnc(C2=NC(=O)C(C)(C(C)C)N2)c(C(=O)O)c1 (stereo not drawn) [Imazethapyr, 5-ethyl-2-(5-iso-propyl-5-methyl-4-oxo-2-imidazolin-2-yl) nicotinic acid] | 3.37 | Strong | 283 | Intermediate | 3.40 | 267 | Intermediate | < 3.00 | Strong | >660 | 3.12 | 500 | Weak

From patent EP0472573B1, “HERBICIDE RESISTANT MAIZE” (ZENECA LIMITED, priority 1989, dated 1990)
